Experimental findings from patent publication US10201559B2, “Compositions of selenoorganic compounds and methods of use thereof” (Alltech, Inc., priority 2014, dated 2019) are described below.

For data set [1], the system named is Nicastrin. The experiment in a line: Western blot, Nicastrin in IMR-32 cells. Format: cell-based, human. Conditions: 150 ppb, 24 hr. As for the experimental part: (§1) IMR-32 and AML12 cells were seeded on 6-well plates, and then treated with vehicle and various compounds for 6 and 24 hr, as described above. After treatments, cells were rinsed with ice-cold PBS, and lysed in the ice-cold RIPA buffer containing complete proteinase and phosphotase inhibitors (Themo-Fisher Scientific, Waltham, Mass.) on ice for 30 min. Cell lysates were collected using a cell scraper and transfer pipette, and then centrifuged at 12000 g for 30 min at 4° C. to remove the DNA pellet and obtain the protein extract. Protein levels in the supernatant of these cell lysates were determined using the Pierce Micro-BCA protein assay kit (Themo Scientific-Piece Biotechnology, Rockford, Ill.) according to the manufacturer's protocol.
(§2) For Western blot analysis, five micrograms of total proteins from vehicle- and compound(s)-treated cells were subjected to SDS-PAGE gel separation, and then transferred to PVDF membranes, as described previously (Reddy, Liu et al. 2008 Science). Membranes were blocked in a phosphate-buffered saline (PBS) containing 5% (w/v) of bovine serum albumin (Sigma, St. Louis, Mo.), and incubated with specific primary antibodies followed by the incubation with HRP-conjugated anti-mouse or anti-rabbit secondary antibodies (1:5000 dilution, Cell Signaling Inc.). All primary antibodies except G6PC (Santa Cruz), Actb (Li-COR, Lincoln, Nebr.), Elf2bε and pElf2bε (Abcam, Cambridge, Mass.) were purchased from Cell Signaling Inc. Positive signals on the membrane blots were detected using the Amersham's enhanced chemiluminescence Western Blotting Prime Detection reagents (GE healthcare Lifescience, Pittsburgh, Pa.). Images of these luminescence signals on the membrane blots were captured using the LI-COR Odyssey Fc Image system (Lincoln, Nebr.). […] Protein band densities in the Western blots were determined using the Li-COR Image studio software or NIH ImageJ software, and then normalized by Actb level in each sample. […]

Data set [2] concerns pGSK3b. The experiment in a line: Western blot, pGSK3b in AML-12 cells. The data set is classed as cell-based, mouse. Conditions: individual compounds, 6 or 24 hr. As for the experimental part: as §1, §2
In data set [3] the test system is PSEN. The experiment in a line: Real-time RT-PCR, PSEN in IMR-32 cells. Format: cell-based, human. Conditions: individual compound. As for the experimental part:
Human IMR-32 cells were seeded on gelatinized 6-well (6.5×10^5 cells/well) or 24-well (1.3×10^5 cells/well) plates, while mouse liver AML-12 cells were cultured on uncoated 6-well (3.33×10^5 cells/well) or 24-well (6.7×10^4 cells/well) plates. Cells were treated with vehicle (control) or various compounds for 6, 24 or 48 hr. Total RNA from these cells was using Trizol (Invitrogen) according to the Manufacturer's protocol, and then incubated with DNase I to remove any potential contaminated genomic DNA. Then RNA samples were subjected to real-time PCR analysis using the Applied-Bioscience's RT kit and predesigned Taqman probes (Invitrogen), as described previously (Lan et al EMBO J 2003). Three to six samples were analyzed in each treatment group. Data were normalized by Actin B (Actb) or Glyceraldehyde Phosphate Dehydrogenase (Gapdh) levels in each sample, and are presented as mean±sem of 3-6 samples.

The subject of data set [4] is pAKT. The experiment in a line: Western blot, pAKT in AML-12 cells. The data set is classed as cell-based, mouse. Conditions: for increased phosphorylation of AKT: individual compounds, 6 or 24 hr. As to the method: as §1
(§3) For Western blot analysis, five micrograms of total proteins from vehicle- and compound(s)-treated cells were subjected to SDS-PAGE gel separation, and then transferred to PVDF membranes, as described previously (Reddy, Liu et al. 2008 Science). Membranes were blocked in a phosphate-buffered saline (PBS) containing 5% (w/v) of bovine serum albumin (Sigma, St. Louis, Mo.), and incubated with specific primary antibodies followed by the incubation with HRP-conjugated anti-mouse or anti-rabbit secondary antibodies (1:5000 dilution, Cell Signaling Inc.). All primary antibodies except G6PC (Santa Cruz), Actb (Li-COR, Lincoln, Nebr.), Elf2bε and pElf2bε (Abcam, Cambridge, Mass.) were purchased from Cell Signaling Inc. Positive signals on the membrane blots were detected using the Amersham's enhanced chemiluminescence Western Blotting Prime Detection reagents (GE healthcare Lifescience, Pittsburgh, Pa.). Images of these luminescence signals on the membrane blots were captured using the LI-COR Odyssey Fc Image system (Lincoln, Nebr.). The same membrane blot was striped and re-blotted with another antibody as described in the GE WB ECL-prime-detection protocol (GE healthcare Lifescience, Pittsburgh, Pa.). Protein band densities in the Western blots were determined using the Li-COR Image studio software or NIH ImageJ software, and then normalized by Actb level in each sample. Data are presented as mean±sem of three samples per each group.

For data set [5], the system named is pFOXO4 T28. The experiment in a line: Western blot, pFOXO4 T28 in IMR-32 cells. Format: cell-based, human. The conditions noted are these: individual compound, 150 ppb. As to the method:
as §1, §3

Data set [6] relates to pGSk3a. The experiment in a line: Western blot, pGSk3a in AML-12 cells. The data set is classed as cell-based, mouse. The conditions noted are these: individual compounds, 6 or 24 hr. As to the method:
as §1, §2

Data set [7] concerns pTau S400/T403/S404. The experiment in a line: Western blot, pTau S400/T403/S404 in IMR-32 cells. The data set is classed as cell-based, human. The conditions noted are these: 150 ppb, 24 hr. As to the method: as §1, §2
The test system of data set [8] is pElf2beS539. The experiment in a line: Western blot, pElf2beS539 in IMR-32 cells. The data set is classed as cell-based, human. Conditions: 150 ppb. As to the method: as §1, §2
The test system of data set [9] is total FOXO. The experiment in a line: Western blot, total FOXO in IMR-32 cells. The data set is classed as cell-based, human. Conditions: 150 ppb (of each compound). As for the experimental part: as §1, §2
Data set [10] deals with total Tau. The experiment in a line: Western blot, total Tau in IMR-32 cells. Format: cell-based, human. The conditions noted are these: 150 ppb, 24 hr. As to the method:
as §1, §2

Data set [11] relates to IMR-32 cells. The experiment in a line: Cell viability assay, IMR-32. The data set is classed as cell-based, human. The conditions noted are these: 24, 48 and 72 hr. As for the experimental part:
(§4) Cell viability in cultured cells was determined using Promega's CellTiter96® AQueous One Solution Cell Proliferation Assay kits, according to the Manufacturer's protocol. In brief, equal number of C2C12 (1×10^4 cells/well), AML-12 (1×10^4 cells/well) and IMR-32 (2×10^4 cells/well) were seeded on 96-well clear plates (VWR) and treated with vehicle or compounds for 24, […] and/or 72 hr. Then, cultured cells were incubated with AQueous One solution (100 ul/per well) at 37° C. for 1 hr, and the absorbance of OD490 nm in each sample was determined by the Bio-Tek microplate reader. Cell viability in culture cells were determined by the subtraction of OD490 nm in cultured cells with the OD490 nm in plain culture media (without seeding of cells). Eight samples per each treatment were examined for the above analysis. Data are presented as Mean±sem of eight samples.

Data set [12] has as its system AML-12 cells. The experiment in a line: Quantitative analysis of mitochondrial potential in AML-12 cells. The data set is classed as cell-based, mouse. Conditions: 150 ppb (of each compound), 6 and 24 hr. As to the method:
For AML-12 liver cells, cells were amplified in 10% FBS Dulbecco's modified Eagle's medium and Ham's F12 medium (1:1) (DMEM/F12) media supplemented with 1× Insulin/Transferin/Selenium (ITS, Sigma). Then equal number of cells (1×10^4 cells/well) were seeded on Corning 96-well clear-bottom and dark-wall cell culture plates (VWR, Radnor, Pa.), cultured in ITS-free 10% FBS DMEM/F12 media for 24 hr., and then subjected to the treatments of various compounds or combination of compounds for 6, 24, and 48 hr. Mitochondrial potential in living cells was determined by quantitative analysis of fluorescence intensities using the Mitotracker orange dye as described above. In addition, the above treated cells were also incubated with Hoechst 33342 dye (Invitrogen, Grand Island, N.Y.) to stain cell nuclei according to the Manufacturer's protocol. The fluorescent intensities of stained cell nuclei by Hoechst 33342 dye were also determined by the fluorescence microplate reader. The mitochondrial potential per cell in living cells was obtained by normalizing the fluorescence intensities of Mitotracker orange dye to the fluorescence intensities of Hoechst 33342 dye in each well. Eight samples per each treatment were examined for the above analysis and data are presented as mean±sem of eight samples.

The subject of data set [13] is pElf2be. The experiment in a line: Western blot, pElf2be S539 in AML-12 cells. The data set is classed as cell-based, mouse. The conditions noted are these: for increased phosphorylation of Elf2be: individual compounds, 6 or 24 hr. As to the method: as §1, §3
In data set [14] the test system is AML-12 cells. The experiment in a line: Cell viability assay, AML-12. Conditions: 48 hr. Format: cell-based, mouse. As for the experimental part: as §4

Entries after “also recorded” stand apart in the source; their conditions may differ.

For `C[Se]C[C@H]1O[C@@H](n2cnc3c(N)ncnc32)C(O)C1O` (stereo in doubt) [compound C, 5′-Methylselenoadenosine], in data set [1], the Nicastrin protein level entry is “significant reduction”. The “increased phosphorylation of Gsk3b” value in [2] is given as “did not observed the increased phosphorylation”. The “PSEN mRNA expression” value in data set [3] (6 hr) and in data set [3] (24 hr) was “significantly reduced” each time. For the same compound, in data set [4], the “increased phosphorylation of AKT” value is on record as “did not observed the increased phosphorylation”. Also, the “decrease of pFoxo4 (pFOXO4 T28) levels” value in [5] (6 hr) and in data set [5] (24 hr) was “statistically significant” in each case. Moreover, in [6], the “increased phosphorylation of Gsk3a” value is “did not observed the increased phosphorylation”. Also, the “phosphorylation of Tau at S400/T403/S404” value in data set [7] is reported as “significantly inhibited the phosphorylation of Tau at S400/T403/S404”. Besides, the pElf2beS539 protein level result in [8] was “not affected”. The “total FOXO levels” value in [9] was “neither the CDE combination nor the individual C, D or E treatments brought about any change”. Further, the “total Tau protein level” value in [10] is “did not affect total Tau protein level”. Further, the “cell viability (OD490 nm)” value is “lack of toxic effects; also recorded: Improved neuronal cell survival” in [11] and “no toxic effects” in data set [14]. Further, the MT potential result in data set [12] is “did not significantly affect MT potential”. Moreover, the “increased phosphorylation of Elf2be” value in data set [13] is “did not observed the increased phosphorylation”.
In the case of `Nc1ncnc2c1ncn2[C@@H]1O[C@H](C[Se]CC[C@@H](N)C(=O)O)C(O)C1O` (some centres unmarked) [compound D, 5′-Selenoadenosyl homocysteine], in data set [1], the Nicastrin protein level result was “trend towards reduced Nicastrin protein expression”. In data set [2], the “increased phosphorylation of Gsk3b” value is recorded as “did not observed the increased phosphorylation”. In addition, the “PSEN mRNA expression” value in data set [3] (24 hr) was “did not inhibit, but instead stimulated”. For the same compound, in data set [4], the “increased phosphorylation of AKT” value was “did not observed the increased phosphorylation”. Moreover, in data set [5] (6 hr), the “decrease of pFoxo4 (pFOXO4 T28) levels” value is on record as “statistically significant”. For the same compound, in data set [6], the “increased phosphorylation of Gsk3a” value was “did not observed the increased phosphorylation”. Besides, in data set [7], the “phosphorylation of Tau at S400/T403/S404” value is “had no effect on Tau phosphorylation at all tested serine/threonine residues”. The pElf2beS539 protein level entry in data set [8] is “not affected”. For the same compound, the “total FOXO levels” value in data set [9] was “neither the CDE combination nor the individual C, D or E treatments brought about any change”. In addition, the “total Tau protein level” value in data set [10] was “had no effect”. Also, the entries for the “cell viability (OD490 nm)” value in data set [11] and in data set [14] were “lack of toxic effects” and “no toxic effects”, respectively. Besides, in data set [12], the MT potential result is on record as “did not significantly affect MT potential”. Moreover, the “increased phosphorylation of Elf2be” value in data set [13] is given as “did not observed the increased phosphorylation”.
`C[Se]CC(NC(=O)CCC(N)C(=O)O)C(=O)O` (centres unmarked) [compound E, gamma-glutamyl-methylseleno-cysteine]: in [1], the Nicastrin protein level result is recorded as “trend towards reduced Nicastrin protein expression”. Moreover, the “increased phosphorylation of Gsk3b” value in [2] is reported as “did not observed the increased phosphorylation”. Moreover, the “PSEN mRNA expression” value in [3] (24 hr) was “did not inhibit, but instead stimulated”. The “levels of pAKT” value in data set [4] (individual compound, 6 hr) is “slightly reduce”. Moreover, the “increased phosphorylation of AKT” value in data set [4] is given as “did not observed the increased phosphorylation”. Further, the “decrease of pFoxo4 (pFOXO4 T28) levels” value in [5] (6 hr) and in data set [5] (24 hr) was “statistically significant” each time. Besides, the “increased phosphorylation of Gsk3a” value in data set [6] is listed as “did not observed the increased phosphorylation”. Besides, the “phosphorylation of Tau at S400/T403/S404” value in data set [7] is “significantly down-regulated”. Also, the pElf2beS539 protein level entry in data set [8] was “not affected”. Besides, in [9], the “total FOXO levels” value was “neither the CDE combination nor the individual C, D or E treatments brought about any change”. Besides, the “total Tau protein level” value in data set [10] was “significantly down-regulated”. The “cell viability (OD490 nm)” value is “lack of toxic effects” in [11] and “no toxic effects” in data set [14]. For the same compound, the MT potential entry in [12] is “did not significantly affect MT potential”. Also, the “levels of pElf2bε S539” value in data set [13] (individual compound, 6 hr) is on record as “slightly reduce”. Further, the “increased phosphorylation of Elf2be” value in [13] is “did not observed the increased phosphorylation”.
